One molecule from patent US9669005B2, “Use of naringenin in preparing drugs for preventing and/or treatment abdominal aortic aneurysm” (priority 2013, dated 2017) can be followed below.

Each structure is given as a SMILES string.

Type in all cases: in vivo
The subject of assay [1] is formed arterial aneurysms in CaPO4 daubed C57 mice. The experiment in a line: Formed abdominal aortic aneurysms, CaPO4 model, naringenin gavage from 7 days after daubing. As to the method: In CaPO4 model, we daubed CaPO4 at infrarenal abdominal aortas in 12-week old of male C57 mice (totally 36 mice), and arterial aneurysms were formed 7 days later. Next, the 36 mice were randomly divided into 2 groups: one group was given naringenin (50 mg/kg/day) gavage, and another group was given equal water gavage. Gavage was performed for 2 weeks (8 mice for each group) and 4 weeks (10 mice for each group), respectively.

The next assay has as its system matrix metalloproteinase. Kind of assay: In situ zymography, CaPO4 model. Conditions: CaPO4 daubed mice; FIG. 4A. Here is the method:
After the aortas of mice were perfused with PBS, fresh tissue was directly embedded with OCT, put in liquid nitrogen for freezing, and then continuously sliced. Firstly, washing was performed with PBS for 3 min, thrice. A fluorescently labeled DQ-gelation-FITC substrate (Sigma-Aldrich, St. Louis, Mo.) was incubated 1 hour at 37° C. Under normal circumstances, fluorescent label for the substrate was packaged, so there is no fluorescence; after activated gelatinase degraded gelatin, green fluorescent label would be exposed. After the section was incubated, washing was performed with PBS for 3 min, thrice, and then the section was sealed. Immunofluorescence confocal microscopy was used to irradiate. The stronger fluorescence was, which means, the stronger activity of matrix metalloproteinase was.

The subject of assay [2] is macrophages and leukocytes in adventitia in vascular walls. The experiment in a line: Immunohistochemical staining of inflammatory cells (Mac3, CD45) in vascular walls, CaPO4 model. The following applies: CaPO4 daubed mice, FIG. 3A. The source says:
In the onset of abdominal aortic aneurysm, inflammatory cell infiltration of vascular walls is a common feature. We used histochemical staining to identify inflammatory cells infiltrated in vascular walls. Mac3 is the result of immumohistochemical staining on anti-Mac3 specific antibody, representative of macrophage, and CD45 is the result of immumohistochemical staining on anti-CD45 specific antibody, representative of leukocyte.

Another assay has as its system IL-6 and MCP-1. Kind of assay: Immunofluorescent staining of IL-6 and MCP-1 in vascular walls, angiotensin II model. The following applies: AngII ApoE-/- mice; naringenin gavage; immunofluorescence; FIG. 7C. Here is the method:
In order to illustrate the mechanism by which naringenin reduces inflammatory reaction of abdominal aorta vascular walls of mice, immunofluorescent staining was performed on IL-6 and MCP-1 by continuous sections to analyze their distributions and expressions in vascular walls.

Assay [3] deals with abdominal aortic aneurysms in angiotensin II induced ApoE-/- mice. Kind of assay: Abdominal aortic aneurysm model in ApoE-/- mice induced by angiotensin II submerging pump, naringenin gavage. The following applies: AngII ApoE-/- mice. Here is the method:
Firstly, 16 weeks of male ApoE^−/− mice were randomly divided into two groups, control group (n=16) and naringenin group (n=15), respectively. And then they were anesthetized by 0.1% pentobarbital sodium, and mini pumps (model 2004, Alzet, Cupertino, Calif.) were subcutaneously submerged; angiotensin II (Sigma-Aldrich, St. Louis, Mo.) dissolved with normal saline was added to the pump, such that drugs can be continuously administrated for 4 weeks at a dosage of 1000 ng/kg/min. From the first day after surgery, gavage was daily performed to mice at constant time points, water gavage in control group, and naringenin gavage (50 mg/kg) in naringenin group. Materials were removed 28 days after gavage. Blood pressure of the mice was measured by tail cuff method with BP-89A sphygmomanometer (Beijing Softron Biotechnology Co., Ltd.), and the mice were weighted. Blood was drawn in inner canthus of the mice, and after centrifuged for 10 minutes at 6000 rotations, supernatant was removed and the blood fat levels of the mice were measured. […] Aortas of mice were fixed and separated. AngII group was the control group of angiotensin II submerging pump and water gavage. AngII+NGN group was the group of angiotensin II submerging pump and naringenin gavage. Four blood vessels were randomly selected in each group for photographing. The results were shown in FIG. 5A, the former two blood vessels in AngII group have significant bulges at suprarenal site, exceeding 50% of the diameters of the blood vessels at adjacent site, and arterial aneurysms are formed. […] Next, the statistics of the onset of abdominal aortic aneurysms in all the mice was performed. In the control group of angiotensin II submerging pump and water gavage, only one of 16 mice died from the fracture of aortic dissection within the first 7 days after submerging pump, another one died from the fracture of abdominal aortic aneurysms 1 week after submerging pump, abdominal aortic aneurysms were generated in 6 of the remaining 14 mice at 28th day after submerging pump. Therefore, in control group of angiotensin II submerging pump, aortic aneurysms were formed in 8 of 16 mice, that is, the morbidity of aortic aneurysms was 50%. And in the group of angiotensin II submerging pump and naringenin gavage, 1 of 15 mice died from the fracture of aortic aneurysms, only 1 of the remaining mice suffered from abdominal aortic aneurysms at 28 day after submerging pump. Therefore, in the group of angiotensin II submerging pump and naringenin gavage, only two of 15 mice suffered from aortic aneurysms, that is, the morbidity of aortic aneurysms was 13.3%. […] After removing materials from mice, aortas were perfused with 4% paraformaldehyde and fixed, the suprarenal aorta from diaphragm muscle to renal artery branch on the right side was equally divided into two segments, which were put into liquid nitrogen to freeze for 30 s after embedded with OCT. Serial sections were performed, the thickness of each section was 6 μm, with the spacing of 300 μm, and continuous 16 sections were performed on each mouse. H.E. staining was used to determine the diameters of abdominal aortas of mice, the diameters were measured and the maximum diameter was selected therefrom. The maximum diameter was compared with the diameter of adjacent site, and if the maximum diameter exceeds 50% of diameter of the adjacent site, it can be considered that the mouse suffered from an abdominal aortic aneurysm. […] We used Gomori staining to determine the fracture situation of the elastic lamina of abdominal aortas of mice, and statistics was performed. The results were shown in FIG. 6B, the fracture of the elastic lamina of abdominal aortas of mice decreases after naringenin gavage, and the mice detected in each group are all 6 mice. The data in Figure are an average value ±standard deviation.

`O=C1C[C@@H](c2ccc(O)cc2)Oc2cc(O)cc(O)c21` [naringenin]: the “average diameter of infrarenal abdominal aortas (ex vivo)” value in assay [1] (aneurysms formed 7 days after CaPO4, naringenin 50 mg/kg/day gavage 2 weeks, control 1.488±0.42, P<0.05) is 0.884±0.33 mm. The “average diameter of infrarenal abdominal aortas (ex vivo)” value in assay [1] (aneurysms formed 7 days after CaPO4, naringenin 50 mg/kg/day gavage 4 weeks, control 1.718±0.64, P<0.05) amounted to 0.9935±0.5 mm. In addition, the “activity of matrix metalloproteinase (in situ zymography)” value in the assay with matrix metalloproteinase is “reduce the activity of matrix metalloproteinase induced by CaPO4 daubing”. Moreover, the “infiltration of macrophages and leukocytes in adventitia in vascular walls” value in assay [2] is given as “reduce such effect”. In the assay with IL-6 and MCP-1, the “production of IL-6 and MCP-1 in vascular walls” value was “significantly decreases”. For the same molecule, the “morbidity of aortic aneurysms” value in assay [3] (naringenin 50 mg/kg gavage 28 days, 15 mice, control 50%) worked out at 13.3%. Also, in assay [3] (naringenin 50 mg/kg gavage 28 days, FIG. 5A), the “formation of abdominal aortic aneurysms (vascular photos)” value is recorded as “reduce the formation of abdominal aortic aneurysms”. For the same molecule, the “maximum diameter of suprarenal abdominal aortas (H.E. staining)” value in assay [3] (naringenin gavage, 11 mice per group, FIG. 6A) is on record as “significantly decreases”. Also, the “fracture of the elastic lamina of abdominal aortas (Gomori staining)” value in assay [3] (naringenin gavage, FIG. 6B) is “decreases”. Moreover, in assay [3] (naringenin gavage, of 15 mice), the “Dissection (number of mice)” value is reported as 0, the “Fracture (number of mice)” value is on record as 1 and the “Without aneurysm (number of mice)” value is 13. In assay [3] (naringenin gavage, of 15 mice, 28th day), the “aneurysm (number of mice)” value is given as 1.
